{"source": "patent US20240131007A1", "about": "“METHODS AND COMPOSITIONS FOR PICORNAVIRUS ANTI-VIRAL AGENTS” (University of Connecticut, priority 2022, published 2024)", "key": {"[1]": {"test_system": "EV-68", "assay": "NIAID secondary assay, Virus Yield Reduction, EV-68", "conditions": "Enterovirus D, EV68, read-out: EC90 μM"}, "[2]": {"assay": "NIAID secondary assay, Virus Yield Reduction, EV-68"}, "[3]": {"molecular_target": "T1, EV-A71 Δ2C^116-329 (Human enterovirus 71, UniProt Q66478)", "T1 construct": "EV-A71 Δ2C (amino acids 116-329) was designed with; made in house; host or cells: E. coli Rosetta 2(DE3) pLysS, pMALc5x vector", "T1 sequence (Q66478 1227-1440, stated change not applied)": "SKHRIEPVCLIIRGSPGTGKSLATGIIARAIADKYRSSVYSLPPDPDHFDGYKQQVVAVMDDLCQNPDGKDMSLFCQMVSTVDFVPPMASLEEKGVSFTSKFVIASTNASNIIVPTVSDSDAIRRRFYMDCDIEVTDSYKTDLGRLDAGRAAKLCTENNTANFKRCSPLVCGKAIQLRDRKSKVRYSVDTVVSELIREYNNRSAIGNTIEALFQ", "type": "binding", "conditions": "0.02 μM to 200 μM compound"}, "[4]": {"assay": "in vitro", "conditions": "African green monkey"}, "[5]": {"test_system": "Middle East Respiratory Syndrome", "type": "cell-based"}, "[6]": {"test_system": "EV-71", "assay": "microbe, parasite or virus in culture", "conditions": "Enterovirus A, EV71, read-out: EC90 μM"}, "[7]": {"assay": "in vitro"}, "[8]": {"assay": "NIAID secondary assay, Neutral Red (CPE/Tox), EV-71"}, "[9]": {"test_system": "EV-71", "assay": "NIAID secondary assay, Neutral Red (CPE/Tox), EV-71", "conditions": "Enterovirus A, EV71, read-out: EC50 μM"}, "[10]": {"test_system": "EV-A71", "assay": "CPE inhibition assay (Cell Titer Glo) against EV-A71 in Vero cells", "type": "cell-based, Enterovirus A71", "conditions": "for pIC50: Enterovirus A, EVA71, EV-A71, Vero cells"}, "[11]": {"test_system": "EV-68", "assay": "NIAID Antiviral Program for Pandemics primary assay (CPE/Tox), EV-68", "conditions": "Enterovirus D; for EC50: EV68, read-out: EC50 μM, primary assay, EV-68"}, "[12]": {"assay": "NIAID Antiviral Program for Pandemics primary assay (CPE/Tox), EV-68", "conditions": "CC50 µM, primary assay, EV-68"}, "[13]": {"test_system": "EV-A71 replicon", "assay": "EV-A71 replicon assay in HeLa cells", "conditions": "1, 5 or 25 μM, 14 hours post transfection"}, "[14]": {"test_system": "PV-1", "type": "cell-based, Poliovirus"}, "[15]": {"test_system": "EV-68", "assay": "NIAID secondary assay, Neutral Red (CPE/Tox), EV-68", "conditions": "Enterovirus D, EV68, read-out: EC50 μM"}, "[16]": {"assay": "NIAID secondary assay, Neutral Red (CPE/Tox), EV-68"}, "[17]": {"test_system": "Eastern equine encephalitis virus", "type": "cell-based"}, "[18]": {"test_system": "EV-D68", "assay": "CPE inhibition assay against EV-D68 in Vero cells", "type": "cell-based", "conditions": "Enterovirus D, EVD68, read-out: IC50 for virus induced CPE inhibition"}, "[19]": {"test_system": "CV-B3", "assay": "NIAID cytopathic effect assay, CV-B3", "type": "cell-based, Coxsackievirus B3"}, "[20]": {"test_system": "influenza A (H1N1)", "assay": "NIAID cytopathic effect assay, influenza A (H1N1)", "type": "cell-based"}, "[21]": {"test_system": "coxsackievirus-B3 (CV-B3)", "assay": "CPE inhibition assay against CV-B3 in HeLa cells", "type": "cell-based"}, "[22]": {"test_system": "West Nile virus", "assay": "NIAID cytopathic effect assay, West Nile virus", "type": "cell-based"}, "[23]": {"test_system": "human echovirus-30", "assay": "NIAID cytopathic effect assay, human echovirus-30", "type": "cell-based"}, "[24]": {"test_system": "human echovirus-11", "assay": "NIAID cytopathic effect assay, human echovirus-11", "type": "cell-based"}, "[25]": {"molecular_target": "T1, EV-A71 Δ2C^116-329", "assay": "biochemical", "type": "biochemical"}, "[26]": {"test_system": "poliovirus Mahoney strain", "assay": "microbe, parasite or virus in culture", "type": "cell-based", "conditions": "Enterovirus C, Vero, read-out: IC50 for virus induced CPE inhibition"}, "[27]": {"assay": "NIAID Antiviral Program for Pandemics primary assay (CPE/Tox), EV-71", "conditions": "CC50 µM, primary assay, EV-71"}, "[28]": {"test_system": "EV-71", "assay": "NIAID Antiviral Program for Pandemics primary assay (CPE/Tox), EV-71", "conditions": "Enterovirus A; for EC50: EV71, read-out: EC50 μM, primary assay, EV-71"}}, "note": "pEC50, pIC50: −log10 of the molar value. “Also recorded” adds a separate entry of the source. Read-outs that look alike come from different tables or passages of the source."}
{"smiles": "Cc1ccc2[nH]c(-c3ccc(NC(=O)c4cccs4)cc3)nc2c1", "note": "[Compound 36, N-[4-(5-methyl-1H-benzimidazol-2-yl)phenyl]-2-thiophenecarboxamide]", "values": [{"measurement": "EC90", "setting": "[1]", "value": 0.59, "unit": "µM"}, {"measurement": "CC50", "setting": "[2]", "value": 9.4, "unit": "µM"}, {"measurement": "shift in melting temperature (Tm) of Δ2C^116-329", "setting": "[3]", "value": "dose-dependent increase in the Tm"}, {"measurement": "CC50 at 3 days", "setting": "[4]; CC50", "value": 78.7, "unit": "µM"}, {"measurement": "CC50 at 3 days", "setting": "[4]; CC50 (μM)", "value": 78.7, "unit": "µM"}, {"measurement": "activity against Middle East Respiratory Syndrome", "setting": "[5]", "value": "no activity"}, {"measurement": "EC90", "setting": "[6]", "value": 3.2, "unit": "µM"}, {"measurement": "CC50", "setting": "[7]", "value": 27, "unit": "µM"}, {"measurement": "CC50", "setting": "[8]", "value": 25, "unit": "µM"}, {"measurement": "EC50", "setting": "[9]", "value": 1.7, "unit": "µM"}, {"measurement": "Selectivity Index", "setting": "[10]", "value": 29.59}, {"measurement": "selectivity index", "setting": "[10]", "value": 29.6}, {"measurement": "pIC50", "setting": "[10]; read-out: IC50 for inhibition of virus-induced CPE", "value": 5.58}, {"measurement": "pIC50", "setting": "[10]; Table 8, virus-induced CPE, read-out: IC50", "value": 5.58}, {"measurement": "EC50", "setting": "[11]; Neutral Red (CPE/Tox)", "value": 0.39, "unit": "µM"}, {"measurement": "EC50", "setting": "[11]; Visual (CPE/Tox)", "value": 0.52, "unit": "µM"}, {"measurement": "pEC50", "setting": "[11]; EV68|EVD68, read-out: EC50 against EV-D68, text, primary cytopathic effect assay", "value": "6.28 to 6.41"}, {"measurement": "CC50", "setting": "[12]; Neutral Red (CPE/Tox)", "value": 9, "unit": "µM"}, {"measurement": "CC50", "setting": "[12]; Visual (CPE/Tox)", "value": 24, "unit": "µM"}, {"measurement": "number of reporter positive cells compared with the untreated control", "setting": "[13]", "value": "no statistically significant difference"}, {"measurement": "activity against PV-1", "setting": "[14]", "value": "no activity"}, {"measurement": "EC50", "setting": "[15]", "value": 0.52, "unit": "µM"}, {"measurement": "CC50", "setting": "[16]", "value": 3.5, "unit": "µM"}, {"measurement": "activity against Eastern equine encephalitis virus", "setting": "[17]", "value": "no activity"}, {"measurement": "pIC50", "setting": "[18]", "value": 6.07}, {"measurement": "activity against CV-B3", "setting": "[19]", "value": "no activity"}, {"measurement": "activity against influenza A (H1N1)", "setting": "[20]", "value": "no activity"}, {"measurement": "inhibition of CV-B3", "setting": "[21]", "value": "did not inhibit; also recorded: not active"}, {"measurement": "activity against West Nile virus", "setting": "[22]", "value": "no activity"}, {"measurement": "activity against human echovirus-30", "setting": "[23]", "value": "no activity"}, {"measurement": "activity against human echovirus-11", "setting": "[24]", "value": "no activity"}, {"measurement": "pIC50", "setting": "[25]", "value": 4.63}, {"measurement": "dose dependence of inhibition of the ATPase function of Δ2C^116-329", "setting": "[25]; dose response", "value": "clear dose-dependent response"}, {"measurement": "pIC50", "setting": "[26]", "value": 5.77}, {"measurement": "CC50", "setting": "[27]; Neutral Red (CPE/Tox)", "value": 42, "unit": "µM"}, {"measurement": "CC50", "setting": "[27]; Visual (CPE/Tox)", "value": 32, "unit": "µM"}, {"measurement": "EC50", "setting": "[28]; Neutral Red (CPE/Tox)", "value": 4.7, "unit": "µM"}, {"measurement": "EC50", "setting": "[28]; Visual (CPE/Tox)", "value": "> 32", "unit": "µM"}, {"measurement": "pEC50", "setting": "[28]; EV71|EVA71, read-out: EC50 against EV-A71, text, primary cytopathic effect assay", "value": 5.38}]}
